[invAb] = 3' inverted deoxyabasic cap; [2NH2-N] = 2'-deoxy-2'-amino ribonucleotide (N: the base); [amino-N] = 2'-deoxy-2'-amino nucleotide (N: the base); [I] = hypoxanthine (inosine); m = 2'-O-methyl; r = 2'-OH (RNA)
What follows are substances tested on minus strand HCV RNA. Conditions: minus strand (−) HCV site, 50 mM Tris-Cl, pH 8.0, 40 mM Mg2+ at 37°, trace substrate, enzymatic nucleic acid concentration of 500 nM or greater.
Assay type: biochemical, Hepatitis C virus

Substance	% Substrate Cleaved in 3 hours [%]
22724 (GGAUGGUUGAUGGCAUGCACUAUGCGCGAGACAGG; sugars from the 5' end mmmmmmmmrrrmmmmmrmmmmmmmmmrmmmmmmmm, [invAb] at 3' end, backbone not given here) [compound 22724]	65.16
22725 (GGAAAAGUGAUGGCAUGCACUAUGCGCGAACAGGA; sugars from the 5' end mmmmmmmmrrrmmmmmrmmmmmmmmmrmmmmmmmm, [invAb] at 3' end, backbone not given here) [compound 22725]	94.66
22726 (AGAAGAAUGAUGGCAUGCACUAUGCGCGACGAGGA; sugars from the 5' end mmmmmmmmrrrmmmmmrmmmmmmmmmrmmmmmmmm, [invAb] at 3' end, backbone not given here) [compound 22726]	82.14
22727 (GGACGAGUGAUGGCAUGCACUAUGCGCGACUUUGU; sugars from the 5' end mmmmmmmmrrrmmmmmrmmmmmmmmmrmmmmmmmm, [invAb] at 3' end, backbone not given here) [compound 22727]	67.20
22728 (GGUAGGUUGAUGGCAUGCACUAUGCGCGAAGUGGC; sugars from the 5' end mmmmmmmmrrrmmmmmrmmmmmmmmmrmmmmmmmm, [invAb] at 3' end, backbone not given here) [compound 22728]	81.06
22752 (AAGAGGAGCCGAAAGGCGAGUGAGGUCUGCGGCGA; 2'-O-methyl at 1, 2, 3, 4, 5, 6, 7, 8, 9, 10, 11, 12, 13, 14, 15, 16, [amino-N] at 17, 27, [invAb] at 3' end, other sugars and backbone not given here) [compound 22752]	27.83
22753 (UGGAAGAGCCGAAAGGCGAGUGAGGUCUACUGAGA; 2'-O-methyl at 1, 2, 3, 4, 5, 6, 7, 8, 9, 10, 11, 12, 13, 14, 15, 16, [2NH2-N] at 17, 27, [invAb] at 3' end, other sugars and backbone not given here) [compound 22753]	89.39
22754 (AGGAGUAGCCGAAAGGCGAGUGAGGUCUGUGGAGG; 2'-O-methyl at 1, 2, 3, 4, 5, 6, 7, 8, 9, 10, 11, 12, 13, 14, 15, 16, [2NH2-N] at 17, 27, [invAb] at 3' end, other sugars and backbone not given here) [compound 22754]	50.40
22755 (CGAAGCAGCCGAAAGGCGAGUGAGGUCUAUGUGGA; 2'-O-methyl at 1, 2, 3, 4, 5, 6, 7, 8, 9, 10, 11, 12, 13, 14, 15, 16, [2NH2-N] at 17, 27, [invAb] at 3' end, other sugars and backbone not given here) [compound 22755]	81.10
22756 (UGGAAGAGCCGAAAGGCGAGUGAGGUCUGGCGUGA; 2'-O-methyl at 1, 2, 3, 4, 5, 6, 7, 8, 9, 10, 11, 12, 13, 14, 15, 16, [2NH2-N] at 17, 27, [invAb] at 3' end, other sugars and backbone not given here) [compound 22756]	73.47
22780 (GACACUGCUGAUGAGGCCGUUAGGCCGAANACACCA; ribozyme; 2'-O-methyl at 1, 2, 3, 4, 5, 6, 7, 15, 16, 17, 18, 19, 20, 21, 22, 23, 24, 25, 26, 31, 32, 33, 34, 35, 36, [I] at 30, [invAb] at 3' end, other sugars and backbone not given here) [compound 22780]	87.33
22781 (GAGAUGACUGAUGAGGCCGUUAGGCCGAANGCGAAG; 2'-O-methyl at 1, 2, 3, 4, 5, 6, 7, 15, 16, 17, 18, 19, 20, 21, 22, 23, 24, 25, 26, 31, 32, 33, 34, 35, 36, [I] at 30, [invAb] at 3' end, other sugars and backbone not given here) [compound 22781]	70.67
22782 (GGAUGAGCUGAUGAGGCCGUUAGGCCGAANAGAGGU; 2'-O-methyl at 1, 2, 3, 4, 5, 6, 7, 15, 16, 17, 18, 19, 20, 21, 22, 23, 24, 25, 26, 31, 32, 33, 34, 35, 36, [I] at 30, [invAb] at 3' end, other sugars and backbone not given here) [compound 22782]	78.83
22783 (UGUGCAGCUGAUGAGGCCGUUAGGCCGAANGAUGAA; 2'-O-methyl at 1, 2, 3, 4, 5, 6, 7, 15, 16, 17, 18, 19, 20, 21, 22, 23, 24, 25, 26, 31, 32, 33, 34, 35, 36, [I] at 30, [invAb] at 3' end, other sugars and backbone not given here) [compound 22783]	86.93
22784 (UGGAUGACUGAUGAGGCCGUUAGGCCGAANCUGUUG; 2'-O-methyl at 1, 2, 3, 4, 5, 6, 7, 15, 16, 17, 18, 19, 20, 21, 22, 23, 24, 25, 26, 31, 32, 33, 34, 35, 36, [I] at 30, [invAb] at 3' end, other sugars and backbone not given here) [compound 22784]	90.41
22948 (GCGAGCCCUGAUGAGGCCGUUAGGCCGAAACGAGUC; 2'-O-methyl at 1, 2, 3, 4, 5, 6, 7, 15, 16, 17, 18, 19, 20, 21, 22, 23, 24, 25, 26, 31, 32, 33, 34, 35, 36, [invAb] at 3' end, other sugars and backbone not given here) [compound 22948]	88.34
22949 (GCUGGAACUGAUGAGGCCGUUAGGCCGAAACACUGA; 2'-O-methyl at 1, 2, 3, 4, 5, 6, 7, 15, 16, 17, 18, 19, 20, 21, 22, 23, 24, 25, 26, 31, 32, 33, 34, 35, 36, [invAb] at 3' end, other sugars and backbone not given here) [compound 22949]	89.16
22950 (AGGAUGACUGAUGAGGCCGUUAGGCCGAAAGAGAGG; 2'-O-methyl at 1, 2, 3, 4, 5, 6, 7, 15, 16, 17, 18, 19, 20, 21, 22, 23, 24, 25, 26, 31, 32, 33, 34, 35, 36, [invAb] at 3' end, other sugars and backbone not given here) [compound 22950]	83.43
22951 (UGAGGAGCUGAUGAGGCCGUUAGGCCGAAACGUGGA; 2'-O-methyl at 1, 2, 3, 4, 5, 6, 7, 15, 16, 17, 18, 19, 20, 21, 22, 23, 24, 25, 26, 31, 32, 33, 34, 35, 36, [invAb] at 3' end, other sugars and backbone not given here) [compound 22951]	83.25
22952 (GACUGGACUGAUGAGGCCGUUAGGCCGAAAUGCACG; 2'-O-methyl at 1, 2, 3, 4, 5, 6, 7, 15, 16, 17, 18, 19, 20, 21, 22, 23, 24, 25, 26, 31, 32, 33, 34, 35, 36, [invAb] at 3' end, other sugars and backbone not given here) [compound 22952]	86.96
22976 (AAGAGGAGGCTAGCTACAACGAGCGGCGAN; 3' inverted abasic cap (B); Description of Artificial Sequence: Nucleic Acid; misc_feature (30)..(30): n stands for inverted deoxyabasic derivative; misc_feature (1)..(7): 2'-O-Methyl; misc_feature (23)..(29): 2'-O-Methyl) [compound 22976]	66.06
22977 (AAGGAGAGGCTAGCTACAACGAGAAGGCGN; 3' inverted abasic cap (B); Description of Artificial Sequence: Nucleic Acid; misc_feature (30)..(30): n stands for inverted deoxyabasic derivative; misc_feature (1)..(7): 2'-O-Methyl; misc_feature (23)..(29): 2'-O-Methyl) [compound 22977]	71.28
22978 (AGGAGGAGGCTAGCTACAACGAGAGAGAGN; 3' inverted abasic cap (B); Description of Artificial Sequence: Nucleic Acid; misc_feature (1)..(7): 2'-O-Methyl; misc_feature (23)..(29): 2'-O-Methyl; misc_feature (30)..(30): n stands for inverted deoxyabasic derivative) [compound 22978]	61.60
22979 (AGGAGUAGGCTAGCTACAACGAGUGGAGGN; 3' inverted abasic cap (B); Description of Artificial Sequence: Nucleic Acid; misc_feature (30)..(30): n stands for inverted deoxyabasic derivative; misc_feature (1)..(7): 2'-O-Methyl; misc_feature (23)..(29): 2'-O-Methyl) [compound 22979]	85.53
22980 (GUUGUGAGGCTAGCTACAACGAUUGGAGGN; 3' inverted abasic cap (B); Description of Artificial Sequence: Nucleic Acid; misc_feature (30)..(30): n stands for inverted deoxyabasic derivative; misc_feature (1)..(7): 2'-O-Methyl; misc_feature (23)..(29): 2'-O-Methyl) [compound 22980]	34.60
